Results: the supplement of paper PMC11208160

Experiment: recombinant UMI read abundance after kanamycin selection (control-corrected) (log10(CPM+1)); higher = more efficient recombination; extreme values may be limits of the assay; sequences stand for … in AGTGCAGAGAAAATCGGCCAGTTTTCTCTGCCTGCAGTCCGCATGCCGTGGGACCCCTTGGGTTCTAACCTGTTGCCTAGATTTATGCAGCGGACTGCCTTTCTCCCAAAGTGATAAACCGG…AGGTTGGTTTCACT; site = the 11-nt donor
Method in brief: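 The measure is log10(CPM+1) for recombinant UMIs. These were PCR-amplified across the donor–target junction and sequenced after Escherichia coli carrying a donor and donor-binding-loop pair library and a target plasmid with T7-inducible IS621 bridge recombinase was plated on IPTG (0.07 mM) plus kanamycin or unselected. CPM were averaged over two replicates and scaled by control-derived factors.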
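Further: IS621 bridge recombinase in Escherichia coli cells against a fixed T5 target plasmid.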

Sequence	recombinant UMI read abundance (log10)
GATGGGACATGGACCGGTTTTCCCGGTAATCCGTATTTGAC (site GATGGGACTGT)	2.75
GATGGGACATGGACCGGTTTTCCCGGTAATCCGTATTTGAC (site GATTGGACTGT)	0
GATGTAACATGGACCGGTTTTCCCGGTAATCCGTATTTGCT (site AATGTAACTAG)	1.24
GATGTAACATGGACCGGTTTTCCCGGTAATCCGTATTTGCT (site CATGTAACTAG)	1.31
GATGTAACATGGACCGGTTTTCCCGGTAATCCGTATTTGCT (site GATGTAACTAG)	1.83
GATGTAACATGGACCGGTTTTCCCGGTAATCCGTATTTGCT (site TATGTAACTAG)	1.83
GATGTATCATGGACCGGTTTTCCCGGTAATCCGTATTTGCA (site GATGTATCTTG)	2.3
GATGTTCCATGGACCGGTTTTCCCGGTAATCCGTATTTGGT (site GATGTTCCTAC)	0.0188
GATGTTCCATGGACCGGTTTTCCCGGTAATCCGTATTTGGT (site GCTGTTCCTAC)	0.00282
GATGTTCCATGGACCGGTTTTCCCGGTAATCCGTATTTGGT (site GGTGTTCCTAC)	0
GATGTTCCATGGACCGGTTTTCCCGGTAATCCGTATTTGGT (site GTTGTTCCTAC)	0.00388
GATTAGACATGGACCGGTTTTCCCGGTAATCCGTATTTGCT (site TTGCTCCCTGT)	0
GATTATCCATGGACCGGTTTTCCCGGTAATCCGTATTTGAT (site GATTATCCTAA)	0.0183
GATTATCCATGGACCGGTTTTCCCGGTAATCCGTATTTGAT (site GATTATCCTAC)	0.0054
GATTATCCATGGACCGGTTTTCCCGGTAATCCGTATTTGAT (site GATTATCCTAG)	0
GATTATCCATGGACCGGTTTTCCCGGTAATCCGTATTTGAT (site GATTATCCTAT)	0
GATTATCCATGGACCGGTTTTCCCGGTAATCCGTATTTGGT (site GATTATCCTAA)	0.017
GATTATCCATGGACCGGTTTTCCCGGTAATCCGTATTTGGT (site GATTATCCTAC)	0.0163
GATTATCCATGGACCGGTTTTCCCGGTAATCCGTATTTGGT (site GATTATCCTAG)	0
GATTATCCATGGACCGGTTTTCCCGGTAATCCGTATTTGGT (site GATTATCCTAT)	0
GATTATCCATGGACCGGTTTTCCCGGTAATCCGTATTTGTT (site GATTATCCTAA)	0.00783
GATTATCCATGGACCGGTTTTCCCGGTAATCCGTATTTGTT (site GATTATCCTAC)	0
GATTATCCATGGACCGGTTTTCCCGGTAATCCGTATTTGTT (site GATTATCCTAG)	0
GATTATCCATGGACCGGTTTTCCCGGTAATCCGTATTTGTT (site GATTATCCTAT)	0
GATTGAACATGGACCGGTTTTCCCGGTAATCCGTATTTGAC (site GATTGAACTGT)	0

Sequence	recombinant UMI read abundance (log10)
GATTGAACATGGACCGGTTTTCCCGGTAATCCGTATTTGAC (site GATTGCACTGT)	0.00522
GATTGAACATGGACCGGTTTTCCCGGTAATCCGTATTTGAC (site GATTGGACTGT)	0.339
GATTGAACATGGACCGGTTTTCCCGGTAATCCGTATTTGAC (site GATTGTACTGT)	0
GATTGTACATGGACCGGTTTTCCCGGTAATCCGTATTTGCG (site GATTGTACTCG)	0.619
GATTGTACATGGACCGGTTTTCCCGGTAATCCGTATTTGGG (site GATTGTACTCC)	0.0205
GATTGTCCATGGACCGGTTTTCCCGGTAATCCGTATTTGAT (site GATTGTCCTAT)	1.17
GATTTTCCATGGACCGGTTTTCCCGGTAATCCGTATTTGCT (site GATTATCCTAG)	0
GATTTTCCATGGACCGGTTTTCCCGGTAATCCGTATTTGCT (site GATTCTCCTAG)	0
GATTTTCCATGGACCGGTTTTCCCGGTAATCCGTATTTGCT (site GATTGTCCTAG)	0.014
GATTTTCCATGGACCGGTTTTCCCGGTAATCCGTATTTGCT (site GATTTTCCTAG)	0
GCAAAGCCATGGACCGGTTTTCCCGGTAATCCGTATTTGGG (site GCAAAGCCTCC)	0.00379
GCAAAGCCATGGACCGGTTTTCCCGGTAATCCGTATTTGGG (site GCCAAGCCTCC)	0.00875
GCAAAGCCATGGACCGGTTTTCCCGGTAATCCGTATTTGGG (site GCGAAGCCTCC)	0.00619
GCAAAGCCATGGACCGGTTTTCCCGGTAATCCGTATTTGGG (site GCTAAGCCTCC)	0.0133
GCAACATCATGGACCGGTTTTCCCGGTAATCCGTATTTGCC (site GCAACATCTGG)	0.611
GCAAGAACATGGACCGGTTTTCCCGGTAATCCGTATTTGAG (site GCAAGAACTCT)	2.56
GCAATAACATGGACCGGTTTTCCCGGTAATCCGTATTTGGT (site GCAATAACTAC)	2.38
GCAATCGCATGGACCGGTTTTCCCGGTAATCCGTATTTGAG (site GCAATCGCTCT)	2.29
GCACAGCCATGGACCGGTTTTCCCGGTAATCCGTATTTGTT (site GCACAGCCTAA)	1.47
GCACCAACATGGACCGGTTTTCCCGGTAATCCGTATTTGCC (site GCACCAACTGG)	0.762
GCACCGACATGGACCGGTTTTCCCGGTAATCCGTATTTGAA (site GCACCGACTTT)	0.965
GCACGAACATGGACCGGTTTTCCCGGTAATCCGTATTTGTC (site ACACGAACTGA)	1.48
GCACGAACATGGACCGGTTTTCCCGGTAATCCGTATTTGTC (site CCACGAACTGA)	2.19
GCACGAACATGGACCGGTTTTCCCGGTAATCCGTATTTGTC (site GCACGAACTGA)	2.56
GCACGAACATGGACCGGTTTTCCCGGTAATCCGTATTTGTC (site TCACGAACTGA)	0.552

Sequence	recombinant UMI read abundance (log10)
GCACGTGCATGGACCGGTTTTCCCGGTAATCCGTATTTGGC (site GCACGTGCTGC)	2.23
GCACTCTCATGGACCGGTTTTCCCGGTAATCCGTATTTGGG (site GCACTCTCTCC)	0.647
GCAGAGTCATGGACCGGTTTTCCCGGTAATCCGTATTTGTA (site GCAGAGTCTTA)	3.17
GCAGATCCATGGACCGGTTTTCCCGGTAATCCGTATTTGTC (site GCAGATCCTGA)	0
GCAGCGTCATGGACCGGTTTTCCCGGTAATCCGTATTTGGA (site GCAGCGTCTTC)	2.37
GCAGGCCCATGGACCGGTTTTCCCGGTAATCCGTATTTGCC (site GCAGGCCCTGG)	0.86
GCAGTGACATGGACCGGTTTTCCCGGTAATCCGTATTTGCG (site GCAGTGACTCG)	2.18
GCAGTTTCATGGACCGGTTTTCCCGGTAATCCGTATTTGCA (site GCAGTTTCTTG)	2.59
GCATACTCATGGACCGGTTTTCCCGGTAATCCGTATTTGCA (site ACATACTCTTG)	2.41
GCATACTCATGGACCGGTTTTCCCGGTAATCCGTATTTGCA (site CCATACTCTTG)	2.9
GCATACTCATGGACCGGTTTTCCCGGTAATCCGTATTTGCA (site GCATACTCTTG)	2.96
GCATACTCATGGACCGGTTTTCCCGGTAATCCGTATTTGCA (site TCATACTCTTG)	2.61
GCATAGTCATGGACCGGTTTTCCCGGTAATCCGTATTTGTT (site GCATAGTCTAA)	3.29
GCATCGGCATGGACCGGTTTTCCCGGTAATCCGTATTTGAC (site GCATCGGCTGT)	2.09
GCATGCCCATGGACCGGTTTTCCCGGTAATCCGTATTTGAT (site GCATGCCCTAT)	0.197
GCATGCCCATGGACCGGTTTTCCCGGTAATCCGTATTTGAT (site GCCTGCCCTAT)	0.226
GCATGCCCATGGACCGGTTTTCCCGGTAATCCGTATTTGAT (site GCGTGCCCTAT)	0.0164
GCATGCCCATGGACCGGTTTTCCCGGTAATCCGTATTTGAT (site GCTTGCCCTAT)	0.0139
GCATGGCCATGGACCGGTTTTCCCGGTAATCCGTATTTGCA (site GAATGGCCTTG)	0
GCATGGCCATGGACCGGTTTTCCCGGTAATCCGTATTTGCA (site GCATGGCCTTG)	0
GCATGGCCATGGACCGGTTTTCCCGGTAATCCGTATTTGCA (site GGATGGCCTTG)	0.0185
GCATGGCCATGGACCGGTTTTCCCGGTAATCCGTATTTGCA (site GTATGGCCTTG)	0.0194
GCATTACCATGGACCGGTTTTCCCGGTAATCCGTATTTGTC (site GCATTACCTGA)	0
GCCAACGCATGGACCGGTTTTCCCGGTAATCCGTATTTGAA (site GCCAACGCTTT)	1.63
GCCAAGGCATGGACCGGTTTTCCCGGTAATCCGTATTTGAG (site GCCAAGGCTCT)	1.49
